According to patent publication EP0255420B1, “Antiviral agent for inhibiting growth of virus of acquired immune deficiency syndrome (AIDS)” (priority 1986, dated 1988):
In brackets after ≈: the same amount, converted by molar mass. Where two headings read alike, the source gives them in different places.

Columns and labels:
reverse transcriptase = reverse transcriptase (Human immunodeficiency virus type 1 group M subtype B, UniProt P04585); test: Reverse transcriptase assay with disrupted HIV; type: biochemical; design: made in house; host or cells: virions from culture supernatants of HIV-producing Molt-4 cells (Molt-4/HIV), disrupted with Triton X-100
Experimental: Supernatants of Molt-4/HIV were concentrated 100 times by sucrose gradient ultracentrifugation. The viral pellets were disrupted by addition of suspension buffer containing 5 mM Tris-HCI(pH 8.1), 0.5 M KCI, 0.1 mM dithiothreitol and 0.1 % Triton® X-100. The assay for reverse transcriptase activity was performed at 37°C for 1 h with a 10 0 of the disrupted HIV in a final volume of 50 µl containing 50 mM Tris-HCI(pH 8.4), 2 mM dithiothreitol, 100 mM KCI, 10 mM MgCI, 0.01 % Triton X-100. 1 wCi 3H-thymidine triphosphate (57 Ci/m mol.; Amersham, Buckinghanshire, UK) and 50 gg/ml poly(rA)/oligo(dT)(P-L Biochemicals Inc., Milwaukee, Wis). The reaction was stopped with 5% trichloroacetic acid, and precipitates were collected on glass fibre filters and counted in a liquid scintillation counter (Harada et. al; Virology 146, p.272-281,1985b). The assays were carried out in triplicate.

herpes simplex virus [1] = details: cited from earlier work
VSV = details: cited from earlier work
HIV [2] = test: Assay for HIV specific antigen expression in HIV infected MT-4 cells (indirect immunofluorescence); type: cell-based; details: for percentage of IF-positive cells: day 3 after infection
HIV particles = test: Inactivation of HIV particles by glycyrrhizin (pre-incubation, then plaque assay); type: cell-based; details: even at 2 mg/ml, 60 min at 37°C
Experimental: 0.5 ml of HIV containing plaque forming units was mixed with 0.5 ml of various concentrations of glycyrrhizin in the test tubes and incubated at 37°C.
After 60 min. incubation 0.1 ml of each mixture was diluted with 19.9 ml of culture medium, and 0.1 ml of the […] diluted virus preparation was added. After adsorption, 1 ml of the agarose overlay medium consisting of RPMI-1640 medium with 10 % fetal calf serum, antibiotics and 0.6 % agarose was poured in. The maximum concentration of the diluted glycyrrhizin in plaque assay medium was 0.01 mg/ml, and this concentration itself reduced about 10 % of HIV induced plaque forming activity in MT-4 cells.

HIV [3] = type: cell-based
Experimental: HIV was obtained from the culture supernatant of Molt-4/HIV. Titer of virus preparation was 6x10^4 plaque forming units/ml. Infection of MT-4 cells and clone No. 8 cells of Molt-4 with HIV was made at a multiplicity of infectin of 0.002.
To evaluate the direct effect of glycyrrhizin on the infection of HIV in MT-4 cells, plaque assay using agarose overlay medium with various concentrations of glycyrrhizin was performed. Briefly, in order to fasten MT-4 cells onto culture vessels, 35 mm polystyrene tissue culture dishes were coated with poly-L-lysine (Sigma Chemical Co., St. Louis,Mo) One and half milliliters of 1.50 x 10^6/ml MT-4 cells were dropped onto each poly-L-lysine-coated dish and incubator for 1 hour at room temperature. The dishes were gently washed with phosphate buffered saline to remove unbound cells, 100 p.1 of appropriate diluted virus preparation was slowly added and incubated for 1 hour at room temperature for virus adsorption. After adsorption, 1 ml of the agarose overlay medium consisting of RPMI 1640 medium with 10 % fetal calf serum, antibiotics and 0.6 % agarose (Sea plaque Agarose, Marine Colloid Corp., Rockland, Me) was poured into each dish. The dishes were incubated in a C02 incubator at 37°C for 3 days and 1 ml of agarose overlay medium containing neutral red was added. The dishes were incubated 3 more days and visible plaque were counted. All experiments were carried out in triplicate.

HIV [4] = test: Cytopathic effect in HIV infected clone No.8 cells of Molt-4 (viable cells, viability); type: cell-based; details: 1 mg/ml
MT-4 cells [5] = test: 3H-thymidine uptake in MT-4 cells (DNA synthesis); type: cell-based; details: 3 days
Experimental: (§1) MT-4 cells were adjusted to 3x10^5 cells/ml in fresh medium and cultured with various concentrations of glycyrrhizin in a 96-flat bottom well microtiter plate for 3 days. 10^6 pheripleral blood monouclear cells were cultured with 1 wg/ml of poly clonal mitogen PHA or concanavalin A various concentrations of glycyrrhizin for 3 days. Cells were incubated with either 1 µCi/well of ^3H-thymidine (20 Ci/m mol.; New Engl.Nuclear, Boston, MA), for the last 18 hours. The cells were harvested on a glassfiber filter paper and counted in a liquid scintillation counter. All experiments were carried out in triplicate.

HIV [6] = test: Number of HIV in culture fluids of infected clone No.8 cells of Molt-4 (MT-4 cell plaque assay system); type: cell-based; details: 1 mg/ml
HIV [7] = test: Cell fusion of HIV infected clone No.8 cells of Molt-4; type: cell-based; details: 1 mg/ml, day 6 and 9
Acute toxicity, rat = type: in vivo; details: Oral administration (rat)
[8] = tested on: normal pheripleral blood monouclear cells; test: 3H-thymidine uptake in normal peripheral blood mononuclear cells (lectin-induced blast formation); type: cell-based; details: normal lymphocytes, 3 days
Experimental: as §1

[9] = mouse, in vivo, ip
herpes simplex virus [10] = details: human embryonic fibroblast; cited from earlier work
HIV [11] = test: Reverse transcriptase activity in culture fluids of HIV infected clone No.8 cells of Molt-4; type: cell-based; details: 1 mg/ml
HIV [12] = test: Assay for HIV induced cytopathic effects in HIV infected MT-4 cells (viable cells, trypan blue exclusion); type: cell-based; details: day 3, multiplicity of infection 0.002
HIV [13] = test: HIV-specific antigen expression in HIV infected clone No.8 cells of Molt-4 (immunofluorescence); type: cell-based; details: 1 mg/ml
Varicella-Zoster virus = details: human embryonic fibroblast; cited from earlier work
MT-4 cells [14] = test: Growth of MT-4 cells not exposed to virus (viable cell count); type: cell-based; details: 2 mg/ml
From the text: • Fig. 1 is a view showing direct effect of glycyrrhizin on HIV induced plaque forming activity in MT-4 cells. Results are the mean of two experiments each performed in triplicate. • Fig. 2 is a view showing inhibition of cytopathic effect of HIV on MT-4 cells by glycyrrhizin. […] Data are from a single experiment, representative of four separate experiments. […] The viable cells were detected by trypan blue exclusion staining method.

Structure (SMILES): Cc1cn([C@H]2C[C@H](N=[N+]=[N-])[C@@H](COP(=O)(O)OP(=O)(O)OP(=O)(O)O)O2)c(=O)[nH]c1=O [3' -azido-TIP, 3'-azido-3'-deoxythymidine triphosphate]
- inhibition of reverse transcriptase activity (reverse transcriptase; 0.005 mg/ml): 97%

Structure (SMILES): CC1(C)[C@@H](O)CC[C@]2(C)[C@H]3C(=O)C=C4[C@@H]5C[C@@](C)(C(=O)O)CC[C@]5(C)CC[C@@]4(C)[C@]3(C)CC[C@@H]12 [glycyrrhetinic acid]
- replication of herpes simplex virus (herpes simplex virus [1]): suppress the replication
- inactivation of virus particles (herpes simplex virus [1]; herpes simplex virus incubated with compound for 30 min): inactivates the virus particles
- inactivation of virus particles (VSV; VSV incubated with compound for 30 min): inactivates the virus particles
- replication of VSV (VSV): suppress the replication

Structure (SMILES): CC1(C)[C@@H](O[C@H]2O[C@H](C(=O)O)[C@@H](O)[C@H](O)[C@H]2O[C@@H]2O[C@H](C(=O)O)[C@@H](O)[C@H](O)[C@H]2O)CC[C@]2(C)[C@H]3C(=O)C=C4[C@@H]5C[C@@](C)(C(=O)O)CC[C@]5(C)CC[C@@]4(C)[C@]3(C)CC[C@@H]12 [glycyrrhizin]
- percentage of IF-positive cells (HIV [2]; 0.005 mg/ml): 70.9
- percentage of IF-positive cells (HIV [2]; 0.05 mg/ml): 69.3
- expression of HIV-specific antigen (in words) (HIV [2]; 0.25 mg/ml): significant inhibition
- percentage of IF-positive cells (HIV [2]; 0.25 mg/ml): 23.3
- expression of HIV-specific antigen (in words) (HIV [2]; 0.5 mg/ml): almost completely suppressed
- percentage of IF-positive cells (HIV [2]; 0.5 mg/ml): 1.0
- expression of HIV-specific antigen (in words) (HIV [2]; 1 mg/ml): almost completely suppressed
- percentage of IF-positive cells (HIV [2]; 1 mg/ml): 0.6
- inactivation of HIV particles (HIV particles): did not inactivate
- LD5o (Acute toxicity, mouse; Intravenous injection 2 % aqueous solution (mouse)): 682.5 mg/kg
- LD5o (Acute toxicity, mouse; Subcutaneous injection 5 % aqueous solution (mouse)): 1873.3 mg/kg
- reduction of HIV induced plaque forming activity in MT-4 cells (HIV [3]; 0.01 mg/ml in plaque assay medium): about 10%
- suppression of plaque formation (HIV [3]; 0.05 mg/ml in agarose overlay medium, MT-4 cells): 34.2%
- inhibition of plaque formation (HIV [3]; 0.5 mg/ml, MT-4 cells): completely inhibited
- inhibition of plaque formation (HIV [3]; 1 mg/ml, MT-4 cells): completely inhibited
- selectivity index (the ratio on the ID50 for host cell DNA synthesis to the average ID50 for HIV) (HIV [3]; MT-4 cells): 17.2
- ID50 (plaque formation of HIV) (HIV [3]; MT-4 cells, Fig.1): 0.125 mg/mL
- inhibition of reverse transcriptase activity of HIV (in words) (reverse transcriptase; even at 10 mg/ml): did not inhibit
- viability (HIV [4]; on day 3): 91.4%
- viable cells (HIV [4]; on day 3): 1.5e+06 mL⁻¹
- viability (HIV [4]; on day 6): 83.4%
- viable cells (HIV [4]; on day 6): 3.4e+06 mL⁻¹
- viability (HIV [4]; on day 9): 84.4%
- viable cells (HIV [4]; on day 9): 7.57e+06 mL⁻¹
- ID50 for DNA synthesis of uninfected MT-4 cells (MT-4 cells [5]): 2.15 mg/mL
- number of HIV (HIV [6]; on day 3): 500< pfu/ml
- number of HIV (HIV [6]; on day 6): 500< pfu/ml
- number of HIV (HIV [6]; on day 9): 1000 pfu/ml
- fusion on clone No.8 cells of Molt-4 (HIV [7]): did not occur
- LD5o (Acute toxicity, rat): 3.0 g/kg
- ID50 on PHA response ([8]; PHA): 2.1 mg/mL (≈ 2550 µM)
- ID50 on concanavalin A response ([8]; concanavalin A): 2.0 mg/mL (≈ 2430 µM)
- LD5o [9]: 225 to 244 mL/kg
- ID50 against herpes simplex virus (herpes simplex virus [10]): 0.60 mg/mL (≈ 729 µM)
- RT (HIV [11]; on day 3, CPM per 10^4 viable cells): 1536 cpm
- RT (HIV [11]; on day 6, CPM per 10^4 viable cells): 5369 cpm
- RT (HIV [11]; on day 9, CPM per 10^4 viable cells): 4369 cpm
- growth inhibition of infected cultures as compared with the uninfected MT-4 cells (HIV [12]; 0.25 mg/ml): not significant
- growth inhibition of infected cultures as compared with the uninfected MT-4 cells (HIV [12]; 0.5 mg/ml): not significant
- growth inhibition of infected cultures as compared with the uninfected MT-4 cells (HIV [12]; 1 mg/ml): not significant
- IF posivive cells (HIV [13]; on day 6): 7.1%
- IF positive cells (HIV [13]; on day 9): 5.8%
- ID50 against Varicella-Zoster virus (Varicella-Zoster virus): 0.58 mg/mL (≈ 705 µM)
- growth inhibition (MT-4 cells [14]): 50%
